Assays:
[1] = system: amyloid; assay: circular dichroism scans of amyloid with compound, T=0 to 168 hr (FIGS. 3-6); conditions: scans at T=0, 24 hr, 96 hr, 120 hr
[2] = system: tau protein; assay: tau protein aggregation over time (FIG. 1); format: biochemical; conditions: tau protein 4 μM; compound at 10 μM
[3] = biological target: beta-amyloid (Homo sapiens, UniProt P05067); conditions: cited from earlier work
[4] = biological target: T1, alpha-synuclein (Homo sapiens, UniProt P37840); assay: alpha-synuclein aggregation inhibition (procedure similar to the ThT assay); format: biochemical; conditions: alpha-synuclein 6 μM
[5] = biological target: T1, alpha-synuclein; assay: as above; format: biochemical; conditions: inhibition of alpha-synuclein aggregation; read-out: A-syn (IC50/μM)
Protocol: (§1) The kinetic ThT assay for Aβ aggregation is similar to that of Chalifour et al (Chalifour et al, 2003, J. Biol. Chem. 278:34874-81). Briefly, pre-treated Aβ40 (40 μM in 20 mM Tris, pH 7.4), was diluted with an equal volume of 8 μM ThT in Tris (20 mM, pH 7.4, 300 mM NaCl). Aliquots of Aβ/ThT (200 μL) were added to wells of a black polystyrene 96-well plate, followed by 2 μL of a compound in DMSO (variable concentration), or DMSO alone (controls). Incubations were performed in triplicate and were taken to contain 20 μM Aβ, various concentration of compound in 20 mM Tris, pH 7.4, 150 mM NaCl, 1% DMSO. Plates were covered with clear polystyrene lids and incubated at 37° C. in a Tecan Genios microplate reader. Fluorescence readings (λex=450 nm, λem=480 nm) were taken every 15 min., after first shaking at high intensity for 15 s and allowing to settle for 10 s before each reading. Active compounds attenuated the increase in fluorescence over time that occurred in controls. By repeating this procedure over several concentrations, a mean inhibitory concentration (IC50) was measured, as given in the table below. The column “A-syn” represents a similar procedure measuring inhibition of alpha-synuclein aggregation. The column “ratio” is a reproducible assessment of potency with respect to the compound of Example 7, in which 1=potency of that compound: […]

[6] = biological target: T2, Aβ40 (Homo sapiens, UniProt P05067); assay: ThT functional Aβ 1-40 aggregation assay; format: biochemical; conditions: for IC50: 20 μM Aβ, 20 mM Tris pH 7.4, 150 mM NaCl, 1% DMSO, 37° C.; for Ratio: potency with respect to the compound of Example 7, 1=potency of that compound
T2 construct: Compounds Showing Activity Observed in a ThT Functional Aβ 1-40 Aggregation Assay
T2 sequence (P05067 672-711 limits assumed): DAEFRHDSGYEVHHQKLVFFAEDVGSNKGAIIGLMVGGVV
Protocol: Aβ40 (1.0 mg) was pre-treated in a 1.5 mL microfuge tube with HFIP (1 mL) and sonicated for 20 min to disassemble any pre-formed Aβ aggregates. The HFIP was removed with a stream of argon and the Aβ dissolved in Tris base (5.8 mL, 20 mM, pH ˜10). The pH was adjusted to 7.4 with concentrated HCl (˜10 μL) and the solution filtered using a syringe filter (0.2 μm) before being used.
as §1

SMILES: CN(C)c1ccc(N2CCN(C(=O)c3ccccc3)CC2)cc1Nc1ccccc1 [Example 34, (4-(4-(dimethylamino)-3-(phenylamino)phenyl)piperazin-1-yl)(phenyl)methanone]
- circular dichroism: effect on amyloid structure [1]: keeps amyloid from entering an aggregated structure

SMILES: CN(C)c1cc([N+](=O)[O-])ccc1N1CCN(C(=O)c2ccccc2)CC1 [Example 25, N,N-dimethyl-2-(4-benzoylpiperazin-1-yl)-5-nitrobenzenamine]
- circular dichroism: effect on amyloid structure [1]: keeps amyloid from entering an aggregated structure

SMILES: CCCNc1cc(N2CCN(C(=O)c3ccccc3)CC2)ccc1[N+](=O)[O-] [Example 6, (4-(4-nitro-3-(propylamino)phenyl)piperazin-1-yl)(phenyl)methanone]
- ability to inhibit the aggregation of tau protein [2]: inhibit the aggregation of tau protein

SMILES: O=C(O)c1cccc(-c2ccc([N+](=O)[O-])c(Nc3ccccc3)c2)c1 [Example 46, 4′-nitro-3′-(phenylamino) biphenyl-3-carboxylic acid]
- circular dichroism: effect on amyloid structure [1]: keeps amyloid from entering an aggregated structure

SMILES: O=C(O)c1cccc(-c2ccc([N+](=O)[O-])c(NCc3ccccc3)c2)c1 [Example 54, 3′-(benzylamino)-4′-nitrophenyl-3-carboxylic acid]
- circular dichroism: effect on amyloid structure [1]: keeps amyloid from entering an aggregated structure

SMILES: Oc1ccc(C=Cc2cc(O)cc(O)c2)cc1 [resveratrol]
- effective concentration for inhibition of beta-amyloid aggregation [3]: 5.6 µM

SMILES: CN1CCN(c2ccc([N+](=O)[O-])c(NCc3ccccc3)c2)CC1 [Example 4, N-benzyl-5-(4-methylpiperazin-1-yl)-2-nitrobenzenamine]
- ability to inhibit the aggregation of tau protein [2]: inhibit the aggregation of tau protein
- inhibition at 10 µM ([4]; compound at 10 μM): 50%
- inhibition of aggregation of alpha-synuclein ([4]; compound at 50 μM): full inhibition

SMILES: O=C(c1ccccc1)N1CCN(c2ccc([N+](=O)[O-])c(Nc3ccccc3)c2)CC1 [Example 7, (4-(4-nitro-3-(phenylamino)phenyl)piperazin-1-yl)(phenyl)methanone]
- IC50 [5]: 6.34 µM
- IC50 [6]: 0.85 µM
- Ratio [6]: 1
- ability to inhibit the aggregation of tau protein [2]: inhibit the aggregation of tau protein

SMILES: CN(C)c1cc([N+](=O)[O-])ccc1N1CCN(C(=O)c2ccccc2)CC1 [drawing 150]
- IC50 [5]: 15 µM
- IC50 [6]: 27 µM
- Ratio [6]: 0.8
